{"source": "patent US7470703B1", "about": "(priority 2004, dated 2008)", "key": {"mouse cremaster muscle [1]": {"tested_on": "mouse cremaster muscle", "test": "Ex vivo mouse cremaster muscle vasoconstriction model", "conditions": "for pEC50: Mus musculus, read-out: EC50 (vasoconstriction concentration-response)"}, "human α2C-AR [2]": {"target": "T1, human α2C-AR (Homo sapiens, UniProt P18825)", "T1 sequence (P18825 1-462)": "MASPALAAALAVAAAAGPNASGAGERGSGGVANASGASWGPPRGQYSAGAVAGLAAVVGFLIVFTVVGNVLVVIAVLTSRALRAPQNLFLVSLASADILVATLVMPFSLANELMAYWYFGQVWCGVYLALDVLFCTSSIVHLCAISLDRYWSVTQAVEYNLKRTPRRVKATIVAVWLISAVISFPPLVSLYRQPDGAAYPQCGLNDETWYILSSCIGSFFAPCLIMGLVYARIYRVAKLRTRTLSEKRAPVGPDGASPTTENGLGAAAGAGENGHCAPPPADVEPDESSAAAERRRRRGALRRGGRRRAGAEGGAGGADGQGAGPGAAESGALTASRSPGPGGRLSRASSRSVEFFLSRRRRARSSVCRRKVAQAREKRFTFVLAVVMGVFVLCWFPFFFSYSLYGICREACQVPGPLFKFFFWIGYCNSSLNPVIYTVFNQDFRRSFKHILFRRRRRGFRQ", "test": "Radioligand binding ([3H]rauwolscine) in CHO cells expressing human α2C-AR", "parameters": "expressed in transfected cells", "conditions": "for binding affinity for the α2C-AR greater than on the α1-AR subtypes: comparing Tables 1 and 3; for selectivity in binding to the α2C- versus the α2A-AR / selectivity in binding to the α2C- versus the α2B-AR: from binding affinities", "protocol": "(§1) Radioligand binding studies were conducted in CHO cells expressing homogeneous populations of α2A-, α2B- and α2C-ARs. Similar studies were performed in HEK293 cells expressing homogeneous populations of α1A-, α1B- and α1D-ARs. Briefly, CHO cells were harvested using Ham's F-12 media following trypsinization while HEK293 cells were detached by simple scraping. The cell suspension was centrifuged and the pellet re-suspended in Tris-EDTA buffer, pH 7.4. […] The assays were conducted in a final volume of 2 ml. Non-specific binding was determined in the presence of 10 μM phentolamine. The percentage of specific binding was determined by dividing the difference between the total bound (dpm) and nonspecific bound (dpm) by the total bound (dpm). […] Inhibition of specific binding by the competitors was determined using varying concentrations of the analogs. Incubations were terminated at 60 minutes by rapid filtration over Whatman GF/C glass fiber filters (Maidstone, UK) using a cell harvester (Brandel Inc., Gaithersburg, Md.). The filter discs were washed three times with Tris-EDTA buffer, pH 7.4, at 4° C. The radioactivity was quantified by using a Packard TRI-CARB 2900 TR Liquid Scintillation Analyzer (Packard Instrument Company, CT, USA) and data analyzed using GraphPad Prism (GraphPad Software, San Diego, Calif., USA).\n(§2) Scatchard analyses were carried out using varying concentrations of selected radioligands to determine their affinities (KD) and maximal binding characteristics (Bmax). […] The total and nonspecific binding for each concentration was determined in triplicate. The specific binding, at each concentration of the radioligand, was established and plotted as bound ligand versus bound/free ligand and the corresponding KD and Bmax values calculated on each human α-AR subtype. Data are expressed as the mean±S.E.M. of n=6-9 experiments.\n(§3) Individual pKi values are used to determine whether there are significant differences among means of the analogs on the three α2-AR subtypes. […] The final data are presented as mean±SEM of n=4 or more experiments.\n(§4) Ki and IC50 values were calculated as described above."}, "mouse cremaster muscle [3]": {"tested_on": "mouse cremaster muscle", "test": "In vivo mouse cremaster muscle vessel diameter", "conditions": "intravenous 2 mg/kg, 37° C., n=6", "description": "It is expected that this model also adequately represent the vasodilation in humans."}, "human α2A-AR [4]": {"target": "T2, human α2A-AR (Homo sapiens, UniProt P08913)", "T2 sequence (P08913 1-465)": "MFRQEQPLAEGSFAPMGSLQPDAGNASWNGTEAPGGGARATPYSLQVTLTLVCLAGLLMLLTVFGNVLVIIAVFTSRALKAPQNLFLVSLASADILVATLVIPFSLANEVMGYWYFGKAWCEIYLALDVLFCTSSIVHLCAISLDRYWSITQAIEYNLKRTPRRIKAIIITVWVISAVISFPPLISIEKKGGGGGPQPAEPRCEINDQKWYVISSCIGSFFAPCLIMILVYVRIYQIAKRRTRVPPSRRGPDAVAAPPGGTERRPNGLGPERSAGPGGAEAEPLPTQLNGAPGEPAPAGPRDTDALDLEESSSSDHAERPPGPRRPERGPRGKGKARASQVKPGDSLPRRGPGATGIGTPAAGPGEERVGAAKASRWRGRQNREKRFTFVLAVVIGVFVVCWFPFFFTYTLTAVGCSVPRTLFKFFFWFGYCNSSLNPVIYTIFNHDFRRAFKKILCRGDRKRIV", "test": "Radioligand binding ([3H]rauwolscine) in CHO cells expressing human α2A-AR", "parameters": "expressed in transfected cells", "protocol": "as §1, §2, §3, §4"}, "human α2B-AR": {"target": "T3, human α2B-AR (Homo sapiens, UniProt P18089)", "T3 construct": "expressed in transfected cells", "T3 sequence (P18089 1-450)": "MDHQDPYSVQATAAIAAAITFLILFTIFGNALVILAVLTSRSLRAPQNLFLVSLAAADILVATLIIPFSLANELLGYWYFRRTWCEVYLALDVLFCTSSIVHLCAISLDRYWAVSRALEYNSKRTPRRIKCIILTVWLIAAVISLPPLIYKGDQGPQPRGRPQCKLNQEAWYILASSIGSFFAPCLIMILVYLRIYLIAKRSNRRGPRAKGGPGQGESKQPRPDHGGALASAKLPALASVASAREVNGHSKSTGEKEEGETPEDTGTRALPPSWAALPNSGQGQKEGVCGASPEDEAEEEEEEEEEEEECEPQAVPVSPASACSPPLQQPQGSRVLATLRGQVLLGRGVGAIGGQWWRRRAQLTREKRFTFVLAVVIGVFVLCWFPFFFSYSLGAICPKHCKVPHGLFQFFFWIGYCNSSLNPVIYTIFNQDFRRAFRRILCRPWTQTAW", "test": "Radioligand binding ([3H]rauwolscine) in CHO cells expressing human α2B-AR", "protocol": "as §1, §2, §3, §4"}, "human α2C-AR [5]": {"target": "T1, human α2C-AR", "parameters": "expressed in transfected cells", "conditions": "literature; cited from earlier work"}, "human α2C-AR [6]": {"target": "T1, human α2C-AR", "test": "cell-based", "protocol": "(§5) The reporter gene assays were conducted in CHO cells expressing the human α2A- and α2C-AR subtype. The cells were grown to confluence, upon which they were isolated and electroporated in the presence of the plasmid. […] Cells were transiently transfected with the 6 CRE-LUC plasmid (5 μg/100 μl of cell suspension) using electroporation at 150 V, 70 ms, single pulse. Transfected cells were plated into a 96-well microplate at a density of approximately 50,000 cells per well and allowed to grow for 20 hours.\n(§6) The assays with both α2A- and α2C-ARs were conducted using the non-subtype selective α2-AR agonist, medetomidine, to block the cAMP changes induced by the adenyl cyclase activator, forskolin. […] Basal values (solvent control) were subtracted from the forskolin values and the resulting forskolin response was used as 100%. Similarly, basal values were subtracted from all other values obtained with ligands, and the data expressed as a percentage luciferase response relative to that of forskolin alone.\n(§7) The agonist ligand, medetomidine, was added directly to the medium 20 minutes prior to the addition of forskolin and then allowed to incubate for 4 hours. […] These compounds were added 20 minutes prior to the addition of medetomidine."}, "human α2A-AR [7]": {"target": "T2, human α2A-AR", "test": "cell-based", "protocol": "as §5, §6, §7"}, "[8]": {"conditions": "CHO cells, [3H]rauwolscine competition"}, "[9]": {"conditions": "CHO, read-out: inhibition of forskolin-induced cAMP response (luciferase)"}}, "note": "pEC50, pKi: −log10 of the molar value. Where two headings read alike, the source gives them in different places. Marks after values point to notes of the source that are not given here."}
{"compound": "COC(=O)[C@@H]1[C@H]2C[C@H]3c4[nH]c5ccccc5c4CCN3C[C@@H]2CC[C@@H]1O", "note": "[Compound 1, Yohimbine]", "values": [{"measurement": "reversal of medetomidine induced vasoconstriction", "setting": "mouse cremaster muscle [1]; 30, 100, and 300 nM", "value": "reversed"}, {"measurement": "binding affinity for the α2C-AR greater than on the α1-AR subtypes", "setting": "human α2C-AR [2]", "value": "at least 224 fold"}, {"measurement": "increase in vessel diameter", "setting": "mouse cremaster muscle [3]", "value": "22.14±1.08", "unit": "%"}]}
{"compound": "O=C(O)[C@@H]1[C@H]2C[C@H]3c4[nH]c5ccccc5c4CCN3C[C@@H]2CC[C@@H]1O", "note": "[Compound 2, Yohimbinic acid]", "values": [{"measurement": "decrease in binding potency at the α2A-AR as compared to yohimbine", "setting": "human α2A-AR [4]", "value": 345, "unit": "fold"}, {"measurement": "pKi", "setting": "human α2A-AR [4]; CHO cells", "value": 6.21}, {"measurement": "decrease in binding potency at the α2C-AR as compared to yohimbine", "setting": "human α2C-AR [2]", "value": 20, "unit": "fold"}, {"measurement": "pKi", "setting": "human α2C-AR [2]; CHO cells", "value": 7.71}, {"measurement": "selectivity in binding to the α2C- versus the α2A-AR", "setting": "human α2C-AR [2]", "value": "around 32 fold"}, {"measurement": "selectivity in binding to the α2C- versus the α2B-AR", "setting": "human α2C-AR [2]", "value": "equipotent"}, {"measurement": "binding at the α2B-AR versus the α2A-AR", "setting": "human α2B-AR", "value": 46, "unit": "fold"}, {"measurement": "decrease in binding potency at the α2B-AR as compared to yohimbine", "setting": "human α2B-AR", "value": 2, "unit": "fold"}, {"measurement": "pKi", "setting": "human α2B-AR; CHO cells", "value": 7.87}]}
{"compound": "O=C(NCCCNC(=O)C1C(O)CCC2CN3CCc4c([nH]c5ccccc45)C3CC21)C1C(O)CCC2CN3CCc4c([nH]c5ccccc45)C3CC21", "note": "(stereo not drawn) [Compound 3]", "values": [{"measurement": "pKi", "setting": "human α2A-AR [4]; CHO cells", "value": 6.80}, {"measurement": "α2A pKi ± SEM", "setting": "human α2A-AR [4]; [8]", "value": "6.80 ± 0.02^a"}, {"measurement": "pKi", "setting": "human α2C-AR [2]; CHO cells", "value": 8.05}, {"measurement": "α2C pKi ± SEM", "setting": "human α2C-AR [2]; [8]", "value": "8.05 ± 0.04^b"}, {"measurement": "selectivity in binding to the α2C- versus the α2A-AR", "setting": "human α2C-AR [2]", "value": 18, "unit": "fold"}, {"measurement": "selectivity in binding to the α2C- versus the α2B-AR", "setting": "human α2C-AR [2]", "value": 68, "unit": "fold"}, {"measurement": "pKi", "setting": "human α2B-AR; CHO cells", "value": 6.22}, {"measurement": "α2B pKi ± SEM", "setting": "human α2B-AR; [8]", "value": "6.22 ± 0.03"}, {"measurement": "selectivity in binding to the α2C- versus α2A-AR (Lalchandani et al. 2002)", "setting": "human α2C-AR [5]", "value": 32, "unit": "fold"}, {"measurement": "selectivity in binding to the α2C- versus α2B-AR (Lalchandani et al. 2002)", "setting": "human α2C-AR [5]", "value": 355, "unit": "fold"}]}
{"compound": "Cc1cccc(C(C)c2cnc[nH]2)c1C", "note": "(stereo not drawn) [medetomidine]", "values": [{"measurement": "shift of the curve (to the left) at the lower temperature", "setting": "mouse cremaster muscle [1]; 25° C. vs 37° C.", "value": 10, "unit": "fold"}, {"measurement": "pEC50", "setting": "mouse cremaster muscle [1]; 25° C.", "value": 8.67}, {"measurement": "pEC50", "setting": "mouse cremaster muscle [1]; 37° C.", "value": 7.69}, {"measurement": "inhibition at 1 µM", "setting": "human α2C-AR [6]; [9]", "value": 70, "unit": "%"}, {"measurement": "increase in cAMP levels, alone (in the absence of forskolin)", "setting": "human α2C-AR [6]; α2C-AR, 1 μM", "value": "did not show an increase in cAMP levels"}, {"measurement": "inhibition at 0.01 µM", "setting": "human α2A-AR [7]; [9]", "value": 56, "unit": "%"}, {"measurement": "increase in cAMP levels, alone (in the absence of forskolin)", "setting": "human α2A-AR [7]; α2A-AR, 10 μM", "value": 17, "unit": "%"}]}
{"compound": "[^3H]rauwolscine [[^3H]rauwolsine]", "values": [{"measurement": "Bmax α2A", "setting": "human α2A-AR [4]; saturation binding, CHO cells", "value": "8.20±0.71", "unit": "pmoles/mg protein"}, {"measurement": "Bmax α2C", "setting": "human α2C-AR [2]; saturation binding, CHO cells", "value": "1.20±0.13", "unit": "pmoles/mg protein"}]}
{"compound": "yohimbine benzyl carbamate propyl amine [Compound 7]", "values": [{"measurement": "binding affinity for the α2C-AR greater than on the α1-AR subtypes", "setting": "human α2C-AR [2]", "value": "≥ 562", "unit": "fold"}, {"measurement": "mean percent inhibition (of the medetomidine response)", "setting": "human α2A-AR [7]; α2A-AR, test compound 0.1 μM, medetomidine 0.01 μM, forskolin 5 μM", "value": 54, "unit": "%"}]}
